From US11040112B2, “Lipids and lipid nanoparticle formulations for delivery of nucleic acids” (Acuitas Therapeutics, Inc., priority 2015, dated 2021)

Columns and labels:
[1] = test system: luciferase expression in the liver; assay: Luciferase mRNA in vivo evaluation: luciferase expression in the liver after tail vein injection of FLuc mRNA lipid nanoparticles; set-up: species or system mice; settings: liver 4 hours after administration; for Liver Luc @ 0.3 mg/kg (ng luc/g liver): 0.3 mg mRNA/kg; for Liver Luc @ 1.0 mg/kg (ng luc/g liver): 1.0 mg mRNA/kg
Procedure: Cationic lipid, DSPC, cholesterol and PEG-lipid were solubilized in ethanol at a molar ratio of 50:10:38.5:1.5 or 47.5:10:40.8:1.7. Lipid nanoparticles (LNP) were prepared at a total lipid to mRNA weight ratio of approximately 10:1 to 30:1. Briefly, the mRNA was diluted to 0.2 mg/mL in 10 to 50 mM citrate buffer, pH 4. Syringe pumps were used to mix the ethanolic lipid solution with the mRNA aqueous solution at a ratio of about 1:5 to 1:3 (vol/vol) with total flow rates above 15 ml/min. The ethanol was then removed and the external buffer replaced with PBS by dialysis. Finally, the lipid nanoparticles were filtered through a 0.2 μm pore sterile filter. Lipid nanoparticle particle size was approximately 55-95 nm diameter, and in some instances approximately 70-90 nm diameter as determined by quasi-elastic light scattering using a Malvern Zetasizer Nano ZS (Malvern, UK).
Studies were performed in 6-8 week old female C57BL/6 mice (Charles River) 8-10 week old CD-1 (Harlan) mice (Charles River) according to guidelines established by an institutional animal care committee (ACC) and the Canadian Council on Animal Care (CCAC). Varying doses of mRNA-lipid nanoparticle were systemically administered by tail vein injection and animals euthanized at a specific time point (e.g 4 hrs) post-administration. Liver and spleen were collected in pre-weighed tubes, weights determined, immediately snap frozen in liquid nitrogen and stored at −80° C. until processing for analysis.
For liver, approximately 50 mg was dissected for analyses in a 2 mL FastPrep tubes (MP Biomedicals, Solon Ohio). ¼″ ceramic sphere (MP Biomedicals) was added to each tube and 500 μL of Glo Lysis Buffer—GLB (Promega, Madison Wis.) equilibrated to room temperature was added to liver tissue. Liver tissues were homogenized with the FastPrep24 instrument (MP Biomedicals) at 2×6.0 m/s for 15 seconds. Homogenate was incubated at room temperature for 5 minutes prior to a 1:4 dilution in GLB and assessed using SteadyGlo Luciferase assay system (Promega). Specifically, 50 μL of diluted tissue homogenate was reacted with 50 μL of SteadyGlo substrate, shaken for 10 seconds followed by 5 minute incubation and then quantitated using a CentroXS^3 LB 960 luminometer (Berthold Technologies, Germany). The amount of protein assayed was determined by using the BCA protein assay kit (Pierce, Rockford Ill.). Relative luminescence units (RLU) were then normalized to total ug protein assayed. To convert RLU to ng luciferase a standard curve was generated with QuantiLum Recombinant Luciferase (Promega). Based in the data provided in FIG. 1, the four-hour time point was chosen for efficacy evaluation of the lipid formulations.
The FLuc mRNA (L-6107) from Trilink Biotechnologies will express a luciferase protein, originally isolated from the firefly, Photinus pyralis. FLuc is commonly used in mammalian cell culture to measure both gene expression and cell viability. It emits bioluminescence in the presence of the substrate, luciferin. This capped and polyadenylated mRNA is fully substituted with 5-methylcytidine and pseudouridine.
The cationic lipids shown in Table 2 have previously been tested with nucleic acids. For comparative purposes, these lipids were also used to formulate lipid nanoparticles containing the FLuc mRNA (L-6107) using an in line mixing method, as described in Example 1 and in PCT/US10/22614, which is hereby incorporated by reference in its entirety. […]

[2] = Determination of pKa of formulated lipids in lipid nanoparticles (TNS fluorescence assay); type: physicochemical; settings: pKa of cationic lipid in LNP (cationic lipid/DSPC/cholesterol/PEG-lipid 50/10/38.5/1.5 mol %), pH of half-maximal intensity
Procedure: As described elsewhere, the pKa of formulated cationic lipids is correlated with the effectiveness of LNPs for delivery of nucleic acids (see Jayaraman et al, Angewandte Chemie, International Edition (2012), 51(34), 8529-8533; Semple et al, Nature Biotechnology 28, 172-176 (2010)). The preferred range of pKa is ˜5 to ˜7. […] Lipid nanoparticles comprising of cationic lipid/DSPC/cholesterol/PEG-lipid (50/10/38.5/1.5 mol %) in PBS at a concentration of 0.4 mM total lipid are prepared using the in-line process as described in Example 1. TNS was prepared as a 100 μM stock solution in distilled water. Vesicles were diluted to 24 μM lipid in 2 mL of buffered solutions containing, 10 mM HEPES, 10 mM MES, 10 mM ammonium acetate, 130 mM NaCl, where the pH ranged from 2.5 to 11. An aliquot of the TNS solution was added to give a final concentration of 1 μM and following vortex mixing fluorescence intensity was measured at room temperature in a SLM Aminco Series 2 Luminescence Spectrophotometer using excitation and emission wavelengths of 321 nm and 445 nm. A sigmoidal best fit analysis was applied to the fluorescence data and the pKa was measured as the pH giving rise to half-maximal fluorescence intensity (see FIG. 2).

[3] = Lipid Ratio A: 50% cationic lipid/10% DSPC/38.5% cholesterol/1.5% PEG lipid (PEG-DMA)
[4] = Lipid Ratio B: 47.5% cationic lipid/10% DSPC/40.8% cholesterol/1.7% PEG lipid

pKa [2]	Compound	Liver Luc @ 0.3 mg/kg (ng luc/g liver) [1, 3] [ng luc/g liver]	Liver Luc @ 1.0 mg/kg (ng luc/g liver) [1, 3] [ng luc/g liver]	Liver Luc @ 0.3 mg/kg (ng luc/g liver) [1, 4] [ng luc/g liver]	Liver Luc @ 1.0 mg/kg (ng luc/g liver) [1, 4] [ng luc/g liver]
6.14	CCCCCCCCC(CCCCCC)COC(=O)CCCCN(CCCCO)CCCCC(=O)OCC(CCCCCC)CCCCCCCC (stereo not drawn) [Compound 15]	247 ± 25	1633 ± 449		
6.22	CCCCCCC(CCCC)C(=O)OCCCCCCCCCN(CCCCO)CCCCCCCCCOC(=O)C(CCCC)CCCCCC (stereo not drawn) [Compound 25]	1648 ± 534	13880 ± 5083		
5.77	CCCCCCCCCCCCC(CCCCCCCCCC)C(=O)OCCCCCCN(CCCCO)CCCCCCOC(=O)C(CCCCCCCCCC)CCCCCCCCCCCC (stereo not drawn) [Compound 27]	110 ± 42	1088 ± 802		
5.84	CCCCCCCCCCC(CCCCCCCC)C(=O)OCCCCCCN(CCCCO)CCCCCCOC(=O)C(CCCCCCCC)CCCCCCCCCC (stereo not drawn) [Compound 26]	1143 ± 782	1238 ± 1686		
5.98	CCCCCCCCC(CCCCCC)C(=O)OCCCCCCCCCCCCN(CCCCO)CCCCCCCCCCCCOC(=O)C(CCCCCC)CCCCCCCC (stereo not drawn) [Compound 23]	137 ± 51	487 ± 209		
6.11	CCCCCCCCC(CCCCCC)C(=O)OCCCCCCN(CCCCCO)CCCCCCOC(=O)C(CCCCCC)CCCCCCCC (stereo not drawn) [Compound 7]	1158 ± 136	8406 ± 2335		
6.06	CCCCCCCCC(CCCCCC)COC(=O)CCCCCCCN(CCO)CCCCCCCC(=O)OCC(CCCCCC)CCCCCCCC (stereo not drawn) [Compound 46]			4 ± 2	5 ± 3
5.89	CCCCCCCCCCC(CCCCCCCC)C(=O)OCCCCCCN(CCCO)CCCCCCOC(=O)C(CCCCCCCC)CCCCCCCCCC (stereo not drawn) [Compound 37]	1244 ± 907	2035 ± 498		
5.84	CCCCCCCCC(CCCCCC)C(=O)OCCCCCCN(CCCCCCO)CCCCCCOC(=O)C(CCCCCC)CCCCCCCC (stereo not drawn) [Compound 8]	1467 ± 943	7230 ± 2290		
5.89	CCCCCCCCC(CCCCCC)C(=O)OCCCCCCN(CCO)CCCCCCOC(=O)C(CCCCCC)CCCCCCCC (stereo not drawn) [Compound 1]	467 ± 72	3780 ± 210		
6.05	CCCCCCCCC(CCCCCC)C(=O)OCCCCCCN(CCCO)CCCCCCOC(=O)C(CCCCCC)CCCCCCCC (stereo not drawn) [Compound 2]	1195 ± 245	10059 ± 3833		
5.6	CCCCCCCCC(CCCCCC)C(=O)OCCCCN(CCCCO)CCCCOC(=O)C(CCCCCC)CCCCCCCC (stereo not drawn) [Compound 4]	378 ± 82	1952 ± 940		
5.59	CCCCCCCCC(CCCCCC)C(=O)OCCCCN(CCCO)CCCCOC(=O)C(CCCCCC)CCCCCCCC (stereo not drawn) [Compound 5]	183 ± 45	713 ± 298		
5.42	CCCCCCCCC(CCCCCC)C(=O)OCCCCN(CCO)CCCCOC(=O)C(CCCCCC)CCCCCCCC (stereo not drawn) [Compound 6]	122 ± 49	520 ± 365		
6.1	CCCCCCCCC(CCCCCC)C(=O)OCCCCCCCCCN(CCCCO)CCCCCCCCCOC(=O)C(CCCCCC)CCCCCCCC (stereo not drawn) [Compound 22]	660 ± 184	7533 ± 4499		
6.09	CCCCCCCCC(CCCCCC)C(=O)OCCCCCCN(CCCCCCOC(=O)C(CCCCCC)CCCCCCCC)CC(O)CO (stereo not drawn) [Compound 30]	49 ± 17	237 ± 92		
5.79	CCCCCCCCCCCCC(CCCCCCCCCC)C(=O)OCCCCCCN(CCCO)CCCCCCOC(=O)C(CCCCCCCCCC)CCCCCCCCCCCC (stereo not drawn) [Compound 44]			23 ± 11	342 ± 229
6.28	CCCCCCCCC(CCCCCC)COC(=O)CCCCCN(CCCCO)CCCCCC(=O)OCC(CCCCCC)CCCCCCCC (stereo not drawn) [Compound 17]	275 ± 139	1554 ± 761		
6.25	CCCCCCC(CCCC)C(=O)OCCCCCCCCCN(CCCO)CCCCCCCCCOC(=O)C(CCCC)CCCCCC (stereo not drawn) [Compound 45]			1026 ± 199	8806 ± 2836
6.31	CCCCCCCCC(CCCCCC)COC(=O)CCCCCN(CCCO)CCCCCC(=O)OCC(CCCCCC)CCCCCCCC (stereo not drawn) [Compound 16]	344 ± 133	2633 ± 1140		
6.09	CCCCCCCCC(CCCCCC)C(=O)OCCCCCCN(CCCCO)CCCCCCOC(=O)C(CCCCCC)CCCCCCCC (stereo not drawn) [Compound 3]	1275 ± 410	10643 ± 1858		
6.36	CCCCCCCCC(CCCCCC)COC(=O)CCCCCCCN(CCCCO)CCCCCCCC(=O)OCC(CCCCCC)CCCCCCCC (stereo not drawn) [Compound 20]			691 ± 150	4279 ± 2226
6.1	CCCCCCCCC(CCCCCC)C(=O)OCCCCCCCCCCCCN(CCCO)CCCCCCCCCCCCOC(=O)C(CCCCCC)CCCCCCCC (stereo not drawn) [Compound 38]	60 ± 5	365 ± 181		
